Substitutions are numbered along the chain they refer to.
What was measured:
Assay in all cases: whole-cell patch clamp, tsA201 cells
Type in all cases: cell-based
hTASK-2 (K2P5.1) [1] = molecular target: T1, hTASK-2 (K2P5.1) (Homo sapiens, UniProt O95279, T108P)
T1 construct: gene KCNK5; full-length channel in pcDNA3.1, transiently expressed in tsA201 cells; functional dimer
T1 sequence (O95279 1-499 T108P): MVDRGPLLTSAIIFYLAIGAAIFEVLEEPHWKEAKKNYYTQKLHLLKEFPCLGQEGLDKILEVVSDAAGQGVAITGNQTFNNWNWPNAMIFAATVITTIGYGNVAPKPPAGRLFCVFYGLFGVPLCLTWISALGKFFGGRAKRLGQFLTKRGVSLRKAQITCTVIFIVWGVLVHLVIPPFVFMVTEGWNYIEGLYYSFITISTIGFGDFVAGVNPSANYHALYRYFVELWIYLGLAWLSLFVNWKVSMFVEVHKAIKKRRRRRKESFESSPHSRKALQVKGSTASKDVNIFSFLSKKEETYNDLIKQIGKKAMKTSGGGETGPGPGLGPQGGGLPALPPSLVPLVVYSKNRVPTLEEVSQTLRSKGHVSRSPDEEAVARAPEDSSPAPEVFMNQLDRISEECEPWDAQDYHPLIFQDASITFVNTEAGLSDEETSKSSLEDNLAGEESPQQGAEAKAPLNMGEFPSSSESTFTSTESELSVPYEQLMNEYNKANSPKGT

hTASK-2 (K2P5.1) [2] = molecular target: T2, hTASK-2 (K2P5.1) (Homo sapiens, UniProt O95279); conditions: activation; pH 7.4; 2.5 mM external K; room temperature
T2 construct: gene KCNK5; full-length channel in pcDNA3.1, transiently expressed in tsA201 cells; functional dimer
T2 sequence (O95279 1-499): T1 sequence (O95279 1-499 T108P) with P108T

hTRAAK (K2P4.1) = molecular target: T3, hTRAAK (K2P4.1) (Homo sapiens, UniProt Q9NYG8); conditions: authors: little effect; difference current between -40 and -80 mV; pH 7.4; 2.5 mM external K; room temperature
T3 construct: gene KCNK4; isoform 2 in pcDNA3.1, transiently expressed in tsA201 cells; homodimer
T3 sequence (Q9NYG8 1-419 isoform Q9NYG8-2): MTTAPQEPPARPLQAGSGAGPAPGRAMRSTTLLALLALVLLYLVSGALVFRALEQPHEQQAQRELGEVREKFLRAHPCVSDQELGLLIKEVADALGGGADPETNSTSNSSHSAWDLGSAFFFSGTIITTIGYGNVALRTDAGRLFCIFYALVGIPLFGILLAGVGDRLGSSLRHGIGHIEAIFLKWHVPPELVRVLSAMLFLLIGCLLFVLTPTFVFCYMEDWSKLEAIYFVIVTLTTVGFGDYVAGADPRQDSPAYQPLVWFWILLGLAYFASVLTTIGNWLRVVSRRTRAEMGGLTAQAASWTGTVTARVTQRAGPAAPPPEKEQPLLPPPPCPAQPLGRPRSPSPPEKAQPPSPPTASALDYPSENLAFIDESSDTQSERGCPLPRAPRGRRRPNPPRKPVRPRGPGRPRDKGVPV

hTASK-2 (K2P5.1) [3] = molecular target: T2, hTASK-2 (K2P5.1); conditions: activation; no effect at 100 μM; pH 7.4; 2.5 mM external K; room temperature
hTRESK (K2P18.1) [4] = molecular target: T4, hTRESK (K2P18.1) (Homo sapiens, UniProt Q7Z418, S252E/S264E)
T4 construct: gene KCNK18; full-length channel in pcDNA3.1, transiently expressed in tsA201 cells; homodimer
T4 sequence (Q7Z418 1-384 S252E/S264E): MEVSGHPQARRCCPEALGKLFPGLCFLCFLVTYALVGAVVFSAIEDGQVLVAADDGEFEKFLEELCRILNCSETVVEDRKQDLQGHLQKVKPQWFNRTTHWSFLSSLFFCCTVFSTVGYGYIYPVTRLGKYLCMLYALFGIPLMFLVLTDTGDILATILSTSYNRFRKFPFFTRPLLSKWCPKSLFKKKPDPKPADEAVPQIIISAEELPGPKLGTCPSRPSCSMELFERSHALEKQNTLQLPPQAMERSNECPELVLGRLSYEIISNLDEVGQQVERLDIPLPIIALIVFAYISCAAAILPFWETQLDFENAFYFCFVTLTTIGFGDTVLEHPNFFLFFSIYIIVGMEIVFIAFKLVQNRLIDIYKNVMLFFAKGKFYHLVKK

hTRESK (K2P18.1) [5] = molecular target: T5, hTRESK (K2P18.1) (Homo sapiens, UniProt Q7Z418, S252A/S264A)
T5 construct: gene KCNK18; full-length channel in pcDNA3.1, transiently expressed in tsA201 cells; homodimer
T5 sequence (Q7Z418 1-384 S252A/S264A): T4 sequence (Q7Z418 1-384 S252E/S264E) with E252A, E264A

hTREK-2 (K2P10.1) = molecular target: T6, hTREK-2 (K2P10.1) (Homo sapiens, UniProt P57789); conditions: activation; difference current between -40 and -80 mV; pH 7.4; 2.5 mM external K; room temperature
T6 construct: gene KCNK10; full-length channel in pcDNA3.1, transiently expressed in tsA201 cells; homodimer
T6 sequence (P57789 1-538): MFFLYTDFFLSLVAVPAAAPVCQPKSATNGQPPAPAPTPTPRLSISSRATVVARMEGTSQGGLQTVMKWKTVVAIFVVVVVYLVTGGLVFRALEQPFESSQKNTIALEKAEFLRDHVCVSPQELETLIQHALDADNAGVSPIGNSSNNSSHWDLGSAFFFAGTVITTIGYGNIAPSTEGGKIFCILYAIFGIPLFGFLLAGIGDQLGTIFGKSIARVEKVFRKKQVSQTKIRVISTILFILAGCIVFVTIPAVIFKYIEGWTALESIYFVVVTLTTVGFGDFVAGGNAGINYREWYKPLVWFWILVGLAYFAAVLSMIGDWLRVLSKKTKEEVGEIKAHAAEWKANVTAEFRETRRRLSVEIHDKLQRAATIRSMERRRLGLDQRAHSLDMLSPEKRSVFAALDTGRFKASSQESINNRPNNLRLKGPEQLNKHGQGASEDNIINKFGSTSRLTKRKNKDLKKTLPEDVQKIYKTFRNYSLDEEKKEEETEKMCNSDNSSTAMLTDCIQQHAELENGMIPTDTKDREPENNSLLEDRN

hTRESK (K2P18.1) [6] = molecular target: T7, hTRESK (K2P18.1) (Homo sapiens, UniProt Q7Z418)
T7 construct: gene KCNK18; full-length channel in pcDNA3.1, transiently expressed in tsA201 cells; homodimer
T7 sequence (Q7Z418 1-384): T4 sequence (Q7Z418 1-384 S252E/S264E) with E252S, E264S

hTRESK (K2P18.1) [7] = molecular target: T8, hTRESK (K2P18.1) (Homo sapiens, UniProt Q7Z418, F145A/F352A)
T8 construct: gene KCNK18; full-length channel in pcDNA3.1, transiently expressed in tsA201 cells; homodimer
T8 sequence (Q7Z418 1-384 F145A/F352A): T4 sequence (Q7Z418 1-384 S252E/S264E) with F145A, E252S, E264S, F352A

O=C(O)c1ccccc1Nc1cccc(C(F)(F)F)c1 [Flufenamic acid]
inhibition at 100 µM (hTASK-2 (K2P5.1) [1]): 15 ± 14%
% enhancement at 100 μM (hTASK-2 (K2P5.1) [2]): 80 ± 31%

COc1cccc2c1cc([N+](=O)[O-])c1c(C(=O)O)cc3c(c12)OCO3 [Aristolochic acid I]
% enhancement at 100 μM (hTRAAK (K2P4.1)): 8 ± 5%
% enhancement at 300 μM (hTASK-2 (K2P5.1) [3]): 21 ± 13%
inhibition at 100 µM (hTRESK (K2P18.1) [4]): 73 ± 5%
inhibition at 100 µM (hTRESK (K2P18.1) [5]): 80 ± 2%
% enhancement at 100 μM (hTREK-2 (K2P10.1)): 44 ± 11%
IC50 (hTRESK (K2P18.1) [6]): 13 ± 2 µM
inhibition at 100 µM (hTRESK (K2P18.1) [7]): 0%
